# Calls of active or inactive are those of the source. The calls are words filed in the database; no cut-off is given here.
# How the values were obtained:
# [1] = test system: NIH3T3; test: In vivo inhibition of […] in nu/nu NCr mouse implanted with mouse NIH3T3 cells harboring extracellular domain deleted […] assessed as reduction in […] phosphorylation at 10 to 100 mg/kg, po administered twice daily for 3 days and measured after 2 hrs post last dose by ELISA; assay type: functional, organism-based; details: dose 10-100 mg/kg, time 3.0 day
# [2] = Toxicity in nu/nu NCr mouse xenografted with human KM12 cells harboring TPM3-TRKA fusion protein assessed as body weight loss at 30 to 300 mg/kg, po administered twice daily for 11 days relative to control; assay type: organism-based; details: in vivo, 264 h, dose 30-300 mg/kg, time 11 day
# [3] = test system: 647-V; test: Inhibition of cell proliferation in human 647-V cells upto 10 umol/L incubated for 72 hrs by DAPI staining based analysis; assay type: functional; details: dose <= 10.0 µmol/L
# [4] = test system: A 172; test: Inhibition of cell proliferation in human A-172 cells upto 10 umol/L incubated for 72 hrs by DAPI staining based analysis; assay type: functional; details: dose <= 10.0 µmol/L
# [5] = test system: SU-DHL10; test: Inhibition of cell proliferation in human SU-DHL-10 cells upto 10 umol/L incubated for 72 hrs by DAPI staining based analysis; assay type: functional; details: dose <= 10.0 µmol/L
# [6] = test system: SW1353; test: Inhibition of cell proliferation in human SW1353 cells upto 10 umol/L incubated for 72 hrs by DAPI staining based analysis; assay type: functional; details: dose <= 10.0 µmol/L
# [7] = test system: BT-474; test: Inhibition of cell proliferation in human BT-474 cells upto 10 umol/L incubated for 72 hrs by DAPI staining based analysis; assay type: functional; details: dose <= 10.0 µmol/L
# [8] = test system: SAOS-2; test: Inhibition of cell proliferation in human SAOS-2 cells upto 10 umol/L incubated for 72 hrs by DAPI staining based analysis; assay type: functional; details: dose <= 10.0 µmol/L
# [9] = test system: TPC1; test: Inhibition of cell proliferation in human TPC1 cells upto 10 umol/L incubated for 72 hrs by DAPI staining based analysis; assay type: functional; details: dose <= 10.0 µmol/L
# [10] = test system: KG-1; test: Inhibition of cell proliferation in human KG-1 cells upto 10 umol/L incubated for 72 hrs by DAPI staining based analysis; assay type: functional; details: dose <= 10.0 µmol/L
# [11] = test system: SCC-4; test: Inhibition of cell proliferation in human SCC-4 cells upto 10 umol/L incubated for 72 hrs by DAPI staining based analysis; assay type: functional; details: dose <= 10.0 µmol/L
# [12] = Cmax in adult patient with recurrent LMNA-NTRK1 rearranged colorectal cancer at 100 mg administered twice a day as powder-in-capsule or liquid formulation for 15 days by LC-MS/MS analysis; assay type: ADME; details: human, in vivo, po, time 15 day
# [13] = molecular target: Tyrosine-protein kinase Lck (Homo sapiens) (UniProt P06239); test: Inhibition of Lck (unknown origin) at 1 uM in presence of ATP relative to control; values are per cent of control
# Chain of Tyrosine-protein kinase Lck (Homo sapiens) (P06239 2-509 limits assumed): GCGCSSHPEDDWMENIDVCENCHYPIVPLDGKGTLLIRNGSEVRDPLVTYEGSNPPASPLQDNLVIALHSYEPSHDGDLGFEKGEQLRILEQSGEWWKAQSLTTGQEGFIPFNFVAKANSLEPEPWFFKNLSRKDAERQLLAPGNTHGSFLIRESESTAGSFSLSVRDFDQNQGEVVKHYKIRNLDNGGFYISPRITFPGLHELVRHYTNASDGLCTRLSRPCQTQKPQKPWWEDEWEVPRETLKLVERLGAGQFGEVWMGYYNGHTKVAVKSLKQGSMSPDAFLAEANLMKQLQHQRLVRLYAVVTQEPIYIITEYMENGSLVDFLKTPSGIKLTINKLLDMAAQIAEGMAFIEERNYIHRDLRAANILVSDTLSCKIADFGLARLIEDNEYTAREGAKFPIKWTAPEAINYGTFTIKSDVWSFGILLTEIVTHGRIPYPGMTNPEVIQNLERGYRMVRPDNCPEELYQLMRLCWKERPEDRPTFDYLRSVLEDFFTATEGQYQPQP
# [14] = molecular target: Serine/threonine-protein kinase N2 (Homo sapiens) (UniProt Q16513); test: Inhibition of PRK2 (unknown origin) at 1 uM in presence of ATP relative to control; values are per cent of control
# Chain of Serine/threonine-protein kinase N2 (Homo sapiens) (Q16513 whole entry, looked up): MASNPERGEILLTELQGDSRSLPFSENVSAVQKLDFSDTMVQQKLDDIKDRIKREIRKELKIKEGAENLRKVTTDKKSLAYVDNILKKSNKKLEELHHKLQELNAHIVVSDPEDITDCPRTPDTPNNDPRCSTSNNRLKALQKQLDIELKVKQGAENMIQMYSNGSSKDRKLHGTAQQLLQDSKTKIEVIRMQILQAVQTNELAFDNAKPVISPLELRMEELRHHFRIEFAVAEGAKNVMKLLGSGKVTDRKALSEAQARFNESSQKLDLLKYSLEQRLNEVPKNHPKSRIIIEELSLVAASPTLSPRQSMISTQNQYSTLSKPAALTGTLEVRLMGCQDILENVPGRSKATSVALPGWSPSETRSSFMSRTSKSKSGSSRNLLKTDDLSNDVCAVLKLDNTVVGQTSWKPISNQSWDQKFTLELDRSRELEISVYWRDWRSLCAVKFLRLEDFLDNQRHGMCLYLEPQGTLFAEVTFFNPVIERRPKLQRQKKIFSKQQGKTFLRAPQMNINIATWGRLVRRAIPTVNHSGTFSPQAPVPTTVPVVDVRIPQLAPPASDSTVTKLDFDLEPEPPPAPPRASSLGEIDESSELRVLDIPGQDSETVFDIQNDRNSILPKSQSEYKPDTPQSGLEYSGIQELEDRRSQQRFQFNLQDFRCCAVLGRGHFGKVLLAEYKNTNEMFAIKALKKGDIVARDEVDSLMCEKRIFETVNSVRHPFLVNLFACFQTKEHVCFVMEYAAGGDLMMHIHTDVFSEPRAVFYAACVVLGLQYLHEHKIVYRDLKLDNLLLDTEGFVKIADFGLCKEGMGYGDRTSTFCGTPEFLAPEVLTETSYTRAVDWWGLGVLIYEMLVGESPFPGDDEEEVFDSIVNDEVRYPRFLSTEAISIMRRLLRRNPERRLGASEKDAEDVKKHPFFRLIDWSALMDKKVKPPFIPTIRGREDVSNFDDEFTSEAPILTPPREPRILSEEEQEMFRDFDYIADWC
# [15] = molecular target: NUAK family SNF1-like kinase 1 (Homo sapiens) (UniProt O60285); test: Inhibition of ARK5 (unknown origin) at 1 uM in presence of ATP relative to control; values are per cent of control
# [16] = molecular target: Mitogen-activated protein kinase 3 (Homo sapiens) (UniProt P27361); test: Inhibition of ERK1 (unknown origin) at 1 uM in presence of ATP relative to control; values are per cent of control
# [17] = molecular target: Mitogen-activated protein kinase 1 (Homo sapiens) (UniProt P28482); test: Inhibition of ERK2 (unknown origin) at 1 uM in presence of ATP relative to control; values are per cent of control
# Chain of Mitogen-activated protein kinase 1 (Homo sapiens) (P28482 whole entry): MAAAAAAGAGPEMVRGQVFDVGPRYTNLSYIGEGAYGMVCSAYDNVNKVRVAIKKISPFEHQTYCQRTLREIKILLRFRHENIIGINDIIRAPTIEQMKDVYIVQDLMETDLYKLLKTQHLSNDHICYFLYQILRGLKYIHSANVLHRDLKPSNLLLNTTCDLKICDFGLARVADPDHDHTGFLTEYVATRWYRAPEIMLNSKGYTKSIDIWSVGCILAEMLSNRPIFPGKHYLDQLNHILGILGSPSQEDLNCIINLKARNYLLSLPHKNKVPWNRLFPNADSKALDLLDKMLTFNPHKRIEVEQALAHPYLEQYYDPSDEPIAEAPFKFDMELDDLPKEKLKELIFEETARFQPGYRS
# [18] = molecular target: Tyrosine-protein kinase JAK2 (Homo sapiens) (UniProt O60674); test: Inhibition of JAK2 (unknown origin) at 1 uM in presence of ATP relative to control; values are per cent of control
# Chain of Tyrosine-protein kinase JAK2 (Homo sapiens) (O60674 whole entry): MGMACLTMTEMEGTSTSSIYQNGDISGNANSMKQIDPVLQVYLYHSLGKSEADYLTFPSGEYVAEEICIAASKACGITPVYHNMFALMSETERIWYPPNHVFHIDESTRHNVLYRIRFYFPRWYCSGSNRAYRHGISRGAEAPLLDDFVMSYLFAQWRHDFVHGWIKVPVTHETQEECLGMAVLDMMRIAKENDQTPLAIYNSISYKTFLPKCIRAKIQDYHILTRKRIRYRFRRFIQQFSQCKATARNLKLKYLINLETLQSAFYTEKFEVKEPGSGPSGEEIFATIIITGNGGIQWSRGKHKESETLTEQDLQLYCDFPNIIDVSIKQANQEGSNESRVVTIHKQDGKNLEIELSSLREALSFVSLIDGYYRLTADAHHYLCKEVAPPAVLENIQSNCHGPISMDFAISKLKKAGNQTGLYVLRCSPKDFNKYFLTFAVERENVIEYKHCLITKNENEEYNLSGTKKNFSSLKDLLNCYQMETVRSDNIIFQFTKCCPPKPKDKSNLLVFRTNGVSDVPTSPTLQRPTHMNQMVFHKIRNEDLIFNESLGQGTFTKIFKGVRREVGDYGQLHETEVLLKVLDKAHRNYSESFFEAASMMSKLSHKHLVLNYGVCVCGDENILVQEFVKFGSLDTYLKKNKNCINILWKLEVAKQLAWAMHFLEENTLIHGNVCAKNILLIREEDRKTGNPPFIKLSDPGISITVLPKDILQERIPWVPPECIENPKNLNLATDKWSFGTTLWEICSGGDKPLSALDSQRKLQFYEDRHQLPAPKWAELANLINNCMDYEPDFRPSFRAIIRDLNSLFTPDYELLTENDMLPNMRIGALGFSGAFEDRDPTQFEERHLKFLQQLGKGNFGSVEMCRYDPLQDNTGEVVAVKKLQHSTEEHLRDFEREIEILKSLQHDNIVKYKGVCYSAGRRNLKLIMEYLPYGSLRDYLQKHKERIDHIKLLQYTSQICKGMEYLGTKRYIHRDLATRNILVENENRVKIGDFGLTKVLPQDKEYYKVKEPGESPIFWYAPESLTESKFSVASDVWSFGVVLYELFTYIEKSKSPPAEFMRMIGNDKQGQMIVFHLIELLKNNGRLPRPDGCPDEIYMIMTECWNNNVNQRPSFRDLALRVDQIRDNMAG
# [19] = molecular target: Angiopoietin-1 receptor (Homo sapiens) (UniProt Q02763); test: Inhibition of Tie2 (unknown origin) at 1 uM in presence of ATP relative to control; values are per cent of control
# [20] = molecular target: Mitogen-activated protein kinase kinase kinase 9 (Homo sapiens) (UniProt P80192); test: Inhibition of MLK1 (unknown origin) at 1 uM in presence of ATP relative to control; values are per cent of control
# [21] = molecular target: LIM domain kinase 1 (Homo sapiens) (UniProt P53667); test: Inhibition of LIMK1 (unknown origin) at 1 uM in presence of ATP relative to control; values are per cent of control
# Chain of LIM domain kinase 1 (Homo sapiens) (P53667 whole entry, looked up, the tested form may be a part): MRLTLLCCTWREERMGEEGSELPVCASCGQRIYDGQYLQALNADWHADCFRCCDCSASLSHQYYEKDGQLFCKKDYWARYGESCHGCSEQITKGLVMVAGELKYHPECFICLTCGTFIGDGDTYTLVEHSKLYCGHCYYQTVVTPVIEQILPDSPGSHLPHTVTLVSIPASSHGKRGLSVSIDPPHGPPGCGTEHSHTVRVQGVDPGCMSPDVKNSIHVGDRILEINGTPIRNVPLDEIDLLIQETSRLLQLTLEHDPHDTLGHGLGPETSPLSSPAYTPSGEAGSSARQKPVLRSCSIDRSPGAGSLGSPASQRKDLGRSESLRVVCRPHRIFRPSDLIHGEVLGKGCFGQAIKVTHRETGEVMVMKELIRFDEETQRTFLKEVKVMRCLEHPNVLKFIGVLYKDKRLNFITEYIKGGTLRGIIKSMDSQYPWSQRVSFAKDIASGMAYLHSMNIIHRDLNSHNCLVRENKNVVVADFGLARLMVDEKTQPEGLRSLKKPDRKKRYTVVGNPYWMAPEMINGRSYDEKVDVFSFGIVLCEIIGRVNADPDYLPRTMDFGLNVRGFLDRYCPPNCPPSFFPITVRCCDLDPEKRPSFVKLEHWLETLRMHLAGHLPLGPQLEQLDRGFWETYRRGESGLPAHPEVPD
# [22] = molecular target: Rho-associated protein kinase 1 (Homo sapiens) (UniProt Q13464); test: Inhibition of ROCK-I (unknown origin) at 1 uM in presence of ATP relative to control; values are per cent of control
# [23] = molecular target: Calcium/calmodulin-dependent protein kinase type II subunit delta (Homo sapiens) (UniProt Q13557); test: Inhibition of CAMK2d (unknown origin) at 1 uM in presence of ATP relative to control; values are per cent of control
# [24] = molecular target: Serine/threonine-protein kinase haspin (Homo sapiens) (UniProt Q8TF76); test: Inhibition of Haspin (unknown origin) at 1 uM in presence of ATP relative to control; values are per cent of control
# [25] = molecular target: Mitogen-activated protein kinase kinase kinase kinase 2 (Homo sapiens) (UniProt Q12851); test: Inhibition of MAP4K2 (unknown origin) at 1 uM in presence of ATP relative to control; values are per cent of control
# Chain of Mitogen-activated protein kinase kinase kinase kinase 2 (Homo sapiens) (Q12851 whole entry): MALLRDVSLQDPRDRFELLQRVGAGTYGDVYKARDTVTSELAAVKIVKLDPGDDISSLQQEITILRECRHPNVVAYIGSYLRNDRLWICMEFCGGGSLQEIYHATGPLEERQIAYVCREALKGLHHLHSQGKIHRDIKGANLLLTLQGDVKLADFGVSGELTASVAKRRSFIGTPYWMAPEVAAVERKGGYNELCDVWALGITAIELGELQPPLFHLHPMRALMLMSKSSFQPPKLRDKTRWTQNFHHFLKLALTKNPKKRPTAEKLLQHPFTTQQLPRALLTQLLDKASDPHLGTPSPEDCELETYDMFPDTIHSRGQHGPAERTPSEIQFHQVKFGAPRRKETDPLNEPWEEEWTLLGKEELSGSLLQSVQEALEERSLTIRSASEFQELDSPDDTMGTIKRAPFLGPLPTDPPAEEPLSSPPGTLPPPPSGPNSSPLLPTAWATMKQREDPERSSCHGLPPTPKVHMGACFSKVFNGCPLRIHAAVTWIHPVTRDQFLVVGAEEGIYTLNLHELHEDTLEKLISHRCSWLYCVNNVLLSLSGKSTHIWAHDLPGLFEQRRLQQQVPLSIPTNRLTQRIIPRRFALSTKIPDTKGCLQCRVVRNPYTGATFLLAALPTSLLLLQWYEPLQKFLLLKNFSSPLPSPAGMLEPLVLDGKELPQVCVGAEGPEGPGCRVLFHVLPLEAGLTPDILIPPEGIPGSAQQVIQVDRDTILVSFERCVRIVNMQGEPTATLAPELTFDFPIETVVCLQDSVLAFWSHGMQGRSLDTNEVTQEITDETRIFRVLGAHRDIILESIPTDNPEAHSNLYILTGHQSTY
# [26] = molecular target: Insulin-like growth factor 1 receptor (Homo sapiens) (UniProt P08069); test: Inhibition of IGF-1R (unknown origin) at 1 uM in presence of ATP relative to control; values are per cent of control
# [27] = molecular target: Phosphorylase b kinase gamma catalytic chain, liver/testis isoform (Homo sapiens) (UniProt P15735); test: Inhibition of PhKgamma2 (unknown origin) at 1 uM in presence of ATP relative to control; values are per cent of control
# [28] = molecular target: Casein kinase II subunit alpha' (Homo sapiens) (UniProt P19784); test: Inhibition of CK2alpha2 (unknown origin) at 1 uM in presence of ATP relative to control; values are per cent of control
# Chain of Casein kinase II subunit alpha' (Homo sapiens) (P19784 whole entry, looked up): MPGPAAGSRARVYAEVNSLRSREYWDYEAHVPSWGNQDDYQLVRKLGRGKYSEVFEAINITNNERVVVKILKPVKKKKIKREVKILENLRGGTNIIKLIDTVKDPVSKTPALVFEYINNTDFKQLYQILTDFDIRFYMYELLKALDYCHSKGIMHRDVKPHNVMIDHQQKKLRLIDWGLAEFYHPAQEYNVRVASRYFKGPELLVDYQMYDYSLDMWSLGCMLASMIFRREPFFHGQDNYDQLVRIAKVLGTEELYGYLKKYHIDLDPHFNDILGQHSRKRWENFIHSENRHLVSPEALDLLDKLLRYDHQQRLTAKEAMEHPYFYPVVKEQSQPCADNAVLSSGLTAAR
# [29] = molecular target: cAMP-dependent protein kinase catalytic subunit alpha (Homo sapiens) (UniProt P17612); test: Inhibition of PKAC-alpha (unknown origin) at 1 uM in presence of ATP relative to control; values are per cent of control
smiles,measurement,setting,value
C[C@@H]1CCc2ncc(F)cc2[C@H]2CCCN2c2ccn3ncc(c3n2)C(=O)N1 [SELITRECTINIB],inhibition,[1],Active
same,Activity,[2],< 5%
same,inhibition,[3],inactive
same,inhibition,[4],inactive
same,inhibition,[5],inactive
same,inhibition,[6],inactive
same,inhibition,[7],inactive
same,inhibition,[8],inactive
same,inhibition,[9],inactive
same,inhibition,[10],inactive
same,inhibition,[11],inactive
same,Cmax,[12],673 ng/mL
same,residual activity,[13],92.5%
same,residual activity,[14],100%
same,residual activity,[15],98%
same,residual activity,[16],111%
same,residual activity,[17],105%
same,residual activity,[18],37.5%
same,residual activity,[19],119%
same,residual activity,[20],96.5%
same,residual activity,[21],85.5%
same,residual activity,[22],105%
same,residual activity,[23],100%
same,residual activity,[24],110%
same,residual activity,[25],102%
same,residual activity,[26],96%
same,residual activity,[27],104%
same,residual activity,[28],99%
same,residual activity,[29],109%
